This is an account of results in patent US20260130851A1, “PLINABULIN MICELLE COMPOSITION AND PREPARATION METHOD THEREFOR” (priority 2022, published 2026).

≈ marks a conversion by molar mass, not a printed value. Read-outs that look alike come from different tables or passages of the source.

This data set is described as follows: Equilibrium solubility of Plinabulin in propylene glycol-D5W diluents (HPLC). It counts as physicochemical. To be noted: for Control Group - Absolute Ethanol Test Concentration: 25° C. The protocol:
Corresponding propylene glycol-D5W injections were prepared. The preparation process was as follows: • Diluent 1 (corresponding to a dilution ratio of 1:20). Weigh about 6 g of propylene glycol, place it in a beaker, add 200 ml of D5W injection, and mix well. • Diluent 2 (corresponding to a dilution ratio of 1:30). Weigh about 4 g of propylene glycol, place it in a beaker, add 200 ml of D5W injection, and mix well. • Diluent 3 (corresponding to a dilution ratio of 1:50): Weigh about 2.4 g of propylene glycol, place it in a beaker, add 200 ml of D5W injection, and mix well.
Acceptance criteria: The concentration of Plinabulin in each solution was determined until there was no significant difference between two consecutive determinations, i.e., equilibrium solubility.
Test solutions were taken at different time points, filtered through a 0.45 μm glass fiber membrane, and injected into the high-performance liquid chromatography system. The equilibrium solubility of Plinabulin in solutions with different ratios at various time points was calculated by the external standard method.

For the compound `CC(C)(C)c1[nH]cnc1/C=c1\[nH]c(=O)/c(=C/c2ccccc2)[nH]c1=O` [Plinabulin, (3Z,6Z)-3-[(5-tert-butyl-1H-imidazol-4-yl)methylene]-6-(phenylmethylene)-2,5-piperazinedione], the “Control Group - Absolute Ethanol Test Concentration” value (“Control Group” for short) (Test Sample 1 (49.5 h), Diluent 1 (about 6 g propylene glycol + 200 ml D5W, 1:20), 100 rpm) turned out to be 0.152 µg/mL; the “Control Group” value (Test Sample 2 (48.5 h), Diluent 2 (about 4 g propylene glycol + 200 ml D5W, 1:30), 100 rpm) turned out to be 0.125 µg/mL; the “Control Group” value (Test Sample 3 (49 h), Diluent 3 (about 2.4 g propylene glycol + 200 ml D5W, 1:50), 100 rpm) worked out at 0.113 µg/mL. Besides, the solubility thermodynamic at 49.5 h (propylene glycol-D5W diluent, 25 °C, saline or isotonic, thermodynamic from solid, Test Sample 1 (1:20) dilution level, 49.5 h, read-out: Test Concentration (equilibrium solubility)) came to 0.152 µg/mL (≈ 0.452 µM) and the solubility thermodynamic at 49.5 h (propylene glycol-D5W diluent, 25 °C, saline or isotonic, thermodynamic from solid, Test Sample 1 (49.5 h), Diluent 1 (about 6 g propylene glycol + 200 ml D5W, 1:20), 100 rpm, read-out: Control Group - Diluent Test Concentration) came out at 0.155 µg/mL. Moreover, the solubility thermodynamic at 72 h (propylene glycol-D5W diluent, 25 °C, saline or isotonic, thermodynamic from solid, Test Sample 1 (1:20) dilution level, 72 h, read-out: Test Concentration (equilibrium solubility)) was found to be 0.145 µg/mL (≈ 0.431 µM). In addition, where the note is “propylene glycol-D5W diluent, 25 °C, saline or isotonic, thermodynamic from solid, Test Sample 1 (1:20) dilution level, 94 h, read-out: Test Concentration (equilibrium solubility)”, the solubility thermodynamic at 94 h is 0.143 µg/mL (≈ 0.425 µM). Moreover, the solubility thermodynamic at 48.5 h by setting is: (propylene glycol-D5W diluent, 25 °C, saline or isotonic, thermodynamic from solid, Test Sample 2 (1:30) dilution level, 48.5 h, read-out: Test Concentration (equilibrium solubility)) 0.125 µg/mL (≈ 0.372 µM); (propylene glycol-D5W diluent, 25 °C, saline or isotonic, thermodynamic from solid, Test Sample 2 (48.5 h), Diluent 2 (about 4 g propylene glycol + 200 ml D5W, 1:30), 100 rpm, read-out: Control Group - Diluent Test Concentration) 0.13 µg/mL. The solubility thermodynamic at 73 h (propylene glycol-D5W diluent, 25 °C, saline or isotonic, thermodynamic from solid, Test Sample 2 (1:30) dilution level, 73 h, read-out: Test Concentration (equilibrium solubility)) was 0.112 µg/mL (≈ 0.333 µM). For the same compound, the solubility thermodynamic at 94.5 h (propylene glycol-D5W diluent, 25 °C, saline or isotonic, thermodynamic from solid, Test Sample 2 (1:30) dilution level, 94.5 h, read-out: Test Concentration (equilibrium solubility)) stood at 0.113 µg/mL (≈ 0.336 µM). For the same compound, the solubility thermodynamic at 49 h by setting is: (propylene glycol-D5W diluent, 25 °C, saline or isotonic, thermodynamic from solid, Test Sample 3 (1:50) dilution level, 49 h, read-out: Test Concentration (equilibrium solubility)) 0.113 µg/mL (≈ 0.336 µM); (propylene glycol-D5W diluent, 25 °C, saline or isotonic, thermodynamic from solid, Test Sample 3 (49 h), Diluent 3 (about 2.4 g propylene glycol + 200 ml D5W, 1:50), 100 rpm, read-out: Control Group - Diluent Test Concentration) 0.117 µg/mL. The solubility thermodynamic at 73.5 h (propylene glycol-D5W diluent, 25 °C, saline or isotonic, thermodynamic from solid, Test Sample 3 (1:50) dilution level, 73.5 h, read-out: Test Concentration (equilibrium solubility)) worked out at 0.095 µg/mL (≈ 0.282 µM). Also, the solubility thermodynamic at 96 h (propylene glycol-D5W diluent, 25 °C, saline or isotonic, thermodynamic from solid, Test Sample 3 (1:50) dilution level, 96 h, read-out: Test Concentration (equilibrium solubility)) was 0.134 µg/mL (≈ 0.398 µM). Also, the solubility thermodynamic at 120 h (propylene glycol-D5W diluent, 25 °C, saline or isotonic, thermodynamic from solid, Test Sample 3 (1:50) dilution level, 120 h, read-out: Test Concentration (equilibrium solubility)) stood at 0.135 µg/mL (≈ 0.401 µM).
